In ChEMBL document CHEMBL1138939, “Privileged structure based ligands for melanocortin receptors--4,4-disubstituted piperidine derivatives” (Bioorg Med Chem Lett, 2006):

What follows are molecules tested against Melanocortin receptor 4 (Homo sapiens, UniProt P32245) (assay: Displacement of [125I]NDP-alpha-MSH from human MC4 receptor transfected in HEK293 cells).
Assay type: cell-based

Melanocortin receptor 4, sequence (P32245 whole entry): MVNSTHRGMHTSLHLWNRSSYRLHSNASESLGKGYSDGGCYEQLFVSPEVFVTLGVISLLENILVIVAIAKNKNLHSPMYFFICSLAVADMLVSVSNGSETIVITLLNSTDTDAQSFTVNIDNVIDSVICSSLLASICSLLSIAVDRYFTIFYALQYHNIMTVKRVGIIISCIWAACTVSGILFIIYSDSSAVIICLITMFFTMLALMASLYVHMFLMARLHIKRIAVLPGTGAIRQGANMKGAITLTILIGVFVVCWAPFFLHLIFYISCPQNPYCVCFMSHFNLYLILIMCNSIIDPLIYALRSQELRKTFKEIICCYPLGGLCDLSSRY

| SMILES | Ki |
| --- | --- |
| CCC1(N2CCN(C(=O)[C@@H](Cc3ccc(Cl)cc3)NC(=O)CC3NCc4ccccc43)CC2)CCN(C)CC1 (some centres not stated) | 0.37 µM |
| CC(C)CC1(N2CCN(C(=O)[C@@H](Cc3ccc(Cl)cc3)NC(=O)CC3NCc4ccccc43)CC2)CCN(C(=O)C(C)C)CC1 (some centres not stated) | 0.101 µM |
| CCCCCCC1(N2CCN(C(=O)[C@@H](Cc3ccc(Cl)cc3)NC(=O)CC3NCc4ccccc43)CC2)CCN(C)CC1 (some centres not stated) | 0.0696 µM |
| CC(C)C1(N2CCN(C(=O)[C@@H](Cc3ccc(Cl)cc3)NC(=O)CC3NCc4ccccc43)CC2)CCN(C)CC1 (some centres not stated) | 0.0418 µM |
| CCN1CCC(CC(C)C)(N2CCN(C(=O)[C@@H](Cc3ccc(Cl)cc3)NC(=O)CC3NCc4ccccc43)CC2)CC1 (some centres not stated) | 0.0156 µM |
| CC(C)CC1(N2CCN(C(=O)[C@@H](Cc3ccc(Cl)cc3)NC(=O)CC3NCc4ccccc43)CC2)CCN(C(C)C)CC1 (some centres not stated) | 0.0129 µM |
| CC(C)CC1(N2CCN(C(=O)[C@@H](Cc3ccc(Cl)cc3)NC(=O)CC3NCc4ccccc43)CC2)CCSCC1 (some centres not stated) | 0.0684 µM |
| CC(C)CC1(N2CCN(C(=O)[C@@H](Cc3ccc(Cl)cc3)NC(=O)CC3NCc4ccccc43)CC2)CCS(=O)(=O)CC1 (some centres not stated) | 0.0758 µM |
| CN1CCC(CC2CCCCC2)(N2CCN(C(=O)[C@@H](Cc3ccc(Cl)cc3)NC(=O)CC3NCc4ccccc43)CC2)CC1 (some centres not stated) | 0.0068 µM |
| CC(C)CC1(N2CCN(C(=O)[C@@H](Cc3ccc(Cl)cc3)NC(=O)CC3NCc4ccccc43)CC2)CCOCC1 (some centres not stated) | 0.0314 µM |
| CC(=O)N1CCC(CC(C)C)(N2CCN(C(=O)[C@@H](Cc3ccc(Cl)cc3)NC(=O)CC3NCc4ccccc43)CC2)CC1 (some centres not stated) | 0.0375 µM |
| CC(C)CC1(N2CCN(C(=O)[C@@H](Cc3ccc(Cl)cc3)NC(=O)CC3NCc4ccccc43)CC2)CCN(S(C)(=O)=O)CC1 (some centres not stated) | 0.0273 µM |
| CC(C)CC1(N2CCN(C(=O)[C@@H](Cc3ccc(Cl)cc3)NC(=O)CC3NCc4ccccc43)CC2)CCCCC1 (some centres not stated) | 0.0469 µM |
| CN1CCC(c2ccccc2)(N2CCN(C(=O)[C@@H](Cc3ccc(Cl)cc3)NC(=O)CC3NCc4ccccc43)CC2)CC1 (some centres not stated) | 0.215 µM |
| CC(C)CC1(N2CCN(C(=O)[C@@H](Cc3ccc(Cl)cc3)NC(=O)CC3NCc4ccccc43)CC2)CCN(C)CC1 (some centres not stated) | 0.0127 µM |
| CN1CCC(Cc2ccccc2)(N2CCN(C(=O)[C@@H](Cc3ccc(Cl)cc3)NC(=O)CC3NCc4ccccc43)CC2)CC1 (some centres not stated) | 0.0439 µM |
| CCN(CC)CC(CC1CCCCC1)N1CCN(C(=O)[C@@H](Cc2ccc(Cl)cc2)NC(=O)CC2NCc3ccccc32)CC1 (some centres not stated) | 0.005 µM |
